Measured values from patent US6685617B1, “Inhibitors of α4β1 mediated cell adhesion” (Pharmacia & Upjohn Company, priority 1998, dated 2004).

biological target: T1, α4β1 integrin (Jurkat cell adhesion to immobilized CS-1 derived peptide CLHPGEILDVPST) (Homo sapiens, UniProt P05556+P13612); assay: Jurkat-CS-1 assay; assay type: cell-based; settings: Jurkat cells on CS-1 peptide coated plates; read-out: JK/CS-1 (Jurkat CS-1 Assay IC50 value range)
T1 construct: 100 μl of Jurkat cells (2.5×10^6 cells/ml) in DMEM plus BSA; host or cells: Jurkat T-cell line
T1 sequence (P13612 34-1032): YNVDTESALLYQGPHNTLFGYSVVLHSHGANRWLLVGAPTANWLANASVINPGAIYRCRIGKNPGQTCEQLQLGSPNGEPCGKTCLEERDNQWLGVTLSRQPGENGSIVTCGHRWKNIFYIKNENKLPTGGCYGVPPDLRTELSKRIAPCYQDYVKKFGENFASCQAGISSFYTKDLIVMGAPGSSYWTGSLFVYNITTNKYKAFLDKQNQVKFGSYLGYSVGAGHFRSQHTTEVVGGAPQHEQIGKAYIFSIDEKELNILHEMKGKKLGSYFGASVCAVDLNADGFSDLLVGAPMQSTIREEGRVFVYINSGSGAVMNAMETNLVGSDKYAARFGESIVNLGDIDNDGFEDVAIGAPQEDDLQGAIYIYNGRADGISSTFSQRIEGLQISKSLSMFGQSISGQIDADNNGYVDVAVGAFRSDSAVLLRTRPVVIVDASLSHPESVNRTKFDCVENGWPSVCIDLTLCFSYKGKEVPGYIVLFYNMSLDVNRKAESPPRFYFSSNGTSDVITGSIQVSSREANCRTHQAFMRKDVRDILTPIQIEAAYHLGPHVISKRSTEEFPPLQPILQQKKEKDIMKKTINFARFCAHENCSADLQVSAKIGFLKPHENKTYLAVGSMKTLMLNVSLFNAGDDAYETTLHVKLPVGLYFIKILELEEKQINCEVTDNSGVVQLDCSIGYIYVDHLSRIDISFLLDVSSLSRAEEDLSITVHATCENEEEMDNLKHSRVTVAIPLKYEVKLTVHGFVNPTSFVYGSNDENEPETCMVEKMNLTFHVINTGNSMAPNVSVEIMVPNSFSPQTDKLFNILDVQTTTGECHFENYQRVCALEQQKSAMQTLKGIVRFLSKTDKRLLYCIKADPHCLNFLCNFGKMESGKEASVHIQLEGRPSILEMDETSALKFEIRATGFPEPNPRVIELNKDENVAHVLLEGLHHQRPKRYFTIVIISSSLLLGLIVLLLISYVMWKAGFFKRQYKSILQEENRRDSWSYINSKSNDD
T1 sequence (P05556 21-798): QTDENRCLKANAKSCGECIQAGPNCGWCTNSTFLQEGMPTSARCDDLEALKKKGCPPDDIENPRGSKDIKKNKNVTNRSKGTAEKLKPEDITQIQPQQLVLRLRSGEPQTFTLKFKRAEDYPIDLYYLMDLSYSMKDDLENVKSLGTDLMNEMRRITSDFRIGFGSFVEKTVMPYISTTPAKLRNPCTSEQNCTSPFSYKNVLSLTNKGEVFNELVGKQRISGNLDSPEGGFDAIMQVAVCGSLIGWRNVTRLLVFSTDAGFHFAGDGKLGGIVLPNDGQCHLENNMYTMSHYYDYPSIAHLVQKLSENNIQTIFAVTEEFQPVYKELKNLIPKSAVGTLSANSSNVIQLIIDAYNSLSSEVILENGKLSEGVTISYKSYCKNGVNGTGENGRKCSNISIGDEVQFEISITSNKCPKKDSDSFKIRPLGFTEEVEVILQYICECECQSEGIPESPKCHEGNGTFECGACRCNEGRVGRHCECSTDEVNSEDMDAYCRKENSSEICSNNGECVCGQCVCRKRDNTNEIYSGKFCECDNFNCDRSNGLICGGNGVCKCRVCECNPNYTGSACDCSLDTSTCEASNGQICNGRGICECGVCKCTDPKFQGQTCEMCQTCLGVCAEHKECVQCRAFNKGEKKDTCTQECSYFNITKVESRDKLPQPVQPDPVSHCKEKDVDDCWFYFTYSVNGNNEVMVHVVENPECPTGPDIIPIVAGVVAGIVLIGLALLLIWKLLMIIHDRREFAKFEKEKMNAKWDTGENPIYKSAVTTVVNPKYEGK
Protocol: The CS-1 derived peptide, CLHPGEILDVPST, and the scrambled control peptide, CLHGPIELVSDPT, were synthesized on a Beckman 990 synthesizer using t-Boc methodology. The peptides were immobilized onto microtiter plates using the heterobifunctional crosslinker 3-(2-pyridyldithio)propionic acid N-hydroxysuccinimide ester (SPDP) as reported by Pierschbacher et al., Proc. Natl. Acad. USA, 80:1224-1227 (1983). Microtiter plates were coated with 20 μg/ml HSA for 2 hr. at room temperature, washed once with PBS and derivatized with 10 μg/ml SPDP for 1 hr. After washing, 100 μl of a 100 μg/ml cysteine containing peptide solution which had been recently dissolved was added to the wells and allowed to crosslink to the plates overnight at 4° C. Unbound peptide was removed from plates by washing with PBS. To block non-reacted sites, the plates are coated with 100 μl of a 2.5 mg/ml BSA solution in PBS for 1 hr. at 37° C. 100 μl of Jurkat cells (2.5×10^6 cells/ml) in DMEM plus BSA (2.5 mg/ml) was mixed with an appropriate concentration of the compound to be tested and the mixture was added to peptide coated dishes and incubated for 1 hr. at 37° C. Generally 100, 20, 5 and 1.25 μM concentrations of the compound were tested.
Following this incubation the plates were washed once with PBS and the attached cells were fixed with 3% paraformaldehyde in PBS and stained with 0.5% toluidine blue in 3.7% formaldehyde. The cells were stained overnight at room temperature and the optical density at 590 nm of toluidine blue stained cells was determined using a vertical pathway spectrophotometer to quantitate attachment (VMAX Kinetic Microplate Reader, Molecular Devices, Menlo Park, Calif.). This procedure is a modification of a previously published method (Cardarelli et al, J. Biol. Chem., 269:18668-18673 (1994) and Cardarelli et al, Proc. Natl. Acad. Sci. USA, 83:2647-2651 (1986)).

| SMILES | IC50 [nM] |
| --- | --- |
| CCOC(=O)N1CSC[C@@H]1C(=O)N[C@@H](Cc1ccc(NC(=O)c2ccccc2)cc1)C(=O)O [Example 268, (4S)-4-[[[(1S)-1-Carboxy-2-[4-[(benzoyl)amino]phenyl]ethyl]amino]carbonyl]-3-thiazolidinecarboxylic Acid 3-Ethyl Ester] | ≥ 750 |
| CCOC(=O)N1CSC[C@@H]1C(=O)N[C@@H](Cc1ccc(NC(C)=O)cc1)C(=O)O [Example 269, (4S)-4-[[[(1S)-1-Carboxy-2-[4-[(acetyl)amino]phenyl]ethyl]amino]carbonyl]-3-thiazolidinecarboxylic Acid 3-Ethyl Ester] | ≥ 750 |
| CCOC(=O)N1CSC[C@@H]1C(=O)N[C@@H](Cc1ccc(NC(=O)c2ccccc2C(F)(F)F)cc1)C(=O)O [Example 274, (4S)-4-[[[(1S)-1-Carboxy-2-[4-[[2-(trifluoromethyl)benzoyl]amino]phenyl]ethyl]amino]carbonyl]-3-thiazolidinecarboxylic Acid 3-Ethyl Ester] | 50 to 750 |
| CCOC(=O)N1CSC[C@@H]1C(=O)N[C@@H](Cc1ccc(NS(=O)(=O)c2cc(Cl)ccc2Cl)cc1)C(=O)O [Example 276, (4S)-4-[[[(1S)-1-Carboxy-2-[4-[[(2,5-dichlorophenyl)sulfonyl]amino]phenyl]ethyl]amino]carbonyl]-3-thiazolidinecarboxylic Acid 3-Ethyl Ester] | ≥ 750 |
| CCOC(=O)N1CSC[C@@H]1C(=O)N[C@@H](Cc1ccc(NC(=O)Nc2c(Cl)cccc2Cl)cc1)C(=O)O [Example 277, (4S)-4-[[[(1S)-1-Carboxy-2-[4-[[[(2,6-dichlorophenyl)amino]carbonyl]amino]phenyl]ethyl]amino]carbonyl]-3-thiazolidinecarboxylic Acid 3-Ethyl Ester] | ≥ 750 |
| O=C(Nc1ccc(C[C@H](NC(=O)C2CS[C@@H]3CNC(=O)N23)C(=O)O)cc1)c1c(Cl)cccc1Cl (stereo partly drawn) [Example 280, 4-[(2,6-Dichlorobenzoyl)amino]-N-[[(7aR)-hexahydro-5-oxoimidazo[5,1-b]thiazol-3-yl]carbonyl]-L-phenylalanine] | 50 to 750 |
| NC(=O)[C@H](Cc1ccc(OCc2c(Cl)cccc2Cl)cc1)NC(=O)[C@H]1CSCN1C(=O)OCCN1CCCC1 [Example 284] | 50 to 750 |
| O=C(O)[C@H](Cc1ccc(OCc2c(Cl)cccc2Cl)cc1)NC(=O)[C@H]1CSCN1C(=O)OC1CCOC1 (stereo partly drawn) [Example 285, (4S)-4-[[[(1S)-1-Carboxy-2-[4-[(2,6-dichlorophenyl)methoxy]phenyl]ethyl]amino]carbonyl]-3-thiazolidinecarboxylic Acid 3-(3-Tetrahydrofuranyl)ester] | 50 to 750 |
| NC(=O)[C@H](Cc1ccc(OCc2c(Cl)cccc2Cl)cc1)NC(=O)[C@H]1CSCN1C(=O)OCCN1CCCCC1 [Example 286, (4S)-4-[[[(1S)-2-Amino-1-[[4-[(2,6-dichlorophenyl)methoxy]phenyl]methyl]-2-oxoethyl]amino]carbonyl]-3-thiazolidinecarboxylic Acid 3-[2-(1-Piperidinyl)ethyl]ester] | 50 to 750 |
| CN1CCN(CCOC(=O)N2CSC[C@@H]2C(=O)N[C@@H](Cc2ccc(OCc3c(Cl)cccc3Cl)cc2)C(N)=O)CC1 [Example 287, (4S)-4-[[[(1S)-2-Amino-1-[[4-[(2,6-dichlorophenyl)methoxy]phenyl]methyl]-2-oxoethyl]amino]carbonyl]-3-thiazolidinecarboxylic Acid 3-[2-(4-Methyl-1-piperazinyl)ethyl]ester] | 50 to 750 |
| NC(=O)[C@H](Cc1ccc(NC(=O)c2c(Cl)cccc2Cl)cc1)NC(=O)[C@H]1CSCN1C(=O)OCCN1CCOCC1 [Example 288, (4S)-4-[[[(1S)-2-Amino-1-[[4-[(2,6-dichlorobenzoyl)amino]phenyl]methyl]-2-oxoethyl]amino]carbonyl]-3-thiazolidinecarboxylic Acid 3-[2-(4-Morpholinyl)ethyl]ester] | ≥ 750 |

Next, values leading:

| IC50 [nM] | SMILES |
| --- | --- |
| 50 to 750 | O=C(Nc1ccc(C[C@H](NC(=O)C2CSC3COC(=O)N32)C(=O)O)cc1)c1c(Cl)cccc1Cl (single isomer, unassigned) [Example 281, 4-[(2,6-Dichlorobenzoyl)amino]-N-[(tetrahydro-5-oxo-5H-thiazolo[3,2-c]oxazol-3-yl)carbonyl]-L-phenylalanine] |
| ≤ 50 | O=C(Nc1ccc(C[C@H](NC(=O)C2CSC3COC(=O)N32)C(=O)O)cc1)c1c(Cl)cccc1Cl (single isomer, unassigned) [Example 282, 4-[(2,6-Dichlorobenzoyl)amino]-N-[(tetrahydro-5-oxo-5H-thiazolo[3,2-c]oxazol-3-yl)carbonyl]-L-phenylalanine] |
| ≤ 50 | CCOC(=O)N1CSCC1C(=O)N[C@@H](Cc1ccc(NC(=O)c2c(Cl)cccc2Cl)nc1)C(=O)O (stereo in doubt) [Example 290, [S-(R*,R*)]-4-[[[1-Carboxy-2-[2-[(2,6-dichlorobenzoyl)amino]-5-pyridinyl]ethyl]amino]carbonyl]-3-thiazolidinecarboxylic Acid Ethyl Ester] |
| 50 to 750 | CCOC(=O)N1CSC[C@@H]1C(=O)N[C@@H](Cc1ccc(NC(=O)CCc2ccccc2)cc1)C(=O)O [Example 270, (4S)-4-[[[(1S)-1-Carboxy-2-[4-[(3-phenylpropanoyl)amino]phenyl]ethyl]amino]carbonyl]-3-thiazolidinecarboxylic Acid 3-Ethyl ester] |
| 50 to 750 | CCOC(=O)N1CSC[C@@H]1C(=O)N[C@@H](Cc1ccc(NC(=O)c2cccnc2)cc1)C(=O)O [Example 271, (4S)-4-[[[(1S)-1-Carboxy-2-[4-[(3-pyridinylcarbonyl)amino]phenyl]ethyl]amino]carbonyl]-3-thiazolidinecarboxylic Acid 3-Ethyl Ester] |
| 50 to 750 | CCOC(=O)N1CSC[C@@H]1C(=O)N[C@@H](Cc1ccc(NC(=O)c2ccc(OC)cc2)cc1)C(=O)O [Example 272, (4S)-4-[[[(1S)-1-Carboxy-2-[4-[(4-methoxybenzoyl)amino]phenyl]ethyl]amino]carbonyl]-3-thiazolidinecarboxylic Acid 3-Ethyl Ester] |
| ≥ 750 | CCOC(=O)N1CSC[C@@H]1C(=O)N[C@@H](Cc1ccc(NC(=O)c2ccc(C)cc2)cc1)C(=O)O [Example 273, (4S)-4-[[[(1S)-1-Carboxy-2-[4-[(4-methylbenzoyl)amino]phenyl]ethyl]amino]carbonyl]-3-thiazolidinecarboxylic Acid 3-Ethyl Ester] |
| ≤ 50 | CCOC(=O)N1CSC[C@@H]1C(=O)N[C@@H](Cc1ccc(NC(=O)c2c(Cl)cc(Cl)cc2Cl)cc1)C(=O)O [Example 275, (4S)-4-[[[(1S)-1-Carboxy-2-[4-[(2,4,6-trichlorobenzoyl)amino]phenyl]ethyl]amino]-carbonyl]-3-thiazolidinecarboxylic Acid 3-Ethyl Ester] |
| 50 to 750 | CCOC(=O)N1CSC[C@@H]1C(=O)N[C@@H](Cc1ccc(C(=O)Nc2c(Cl)cc(Cl)cc2Cl)cc1)C(=O)O [Example 278, (4S)-4-[[[(1S)-1-Carboxy-2-[4-[[(2,4,6-trichlorophenyl)amino]carbonyl]phenyl]ethyl]amino]carbonyl]-3-thiazolidinecarboxylic Acid 3-Ethyl Ester] |
| 50 to 750 | O=C(Nc1ccc(C[C@H](NC(=O)C2CS[C@H]3CNC(=O)N23)C(=O)O)cc1)c1c(Cl)cccc1Cl (stereo partly drawn) [Example 279, 4-[(2,6-Dichlorobenzoyl)amino]-N-[[(7aS)-hexahydro-5-oxoimidazo[5,1-b]thiazol-3-yl]carbonyl]-L-phenylalanine] |
| 50 to 750 | CCOC(=O)N1C(c2ccncc2)SC[C@@H]1C(=O)N[C@@H](Cc1ccc(NC(=O)c2c(Cl)cccc2Cl)cc1)C(=O)O (stereo partly drawn) [Example 283, (4S)-4-[[[(1S)-1-Carboxy-2-[4-[(2,6-dichlorobenzoyl)amino]phenyl]ethyl]amino]carbonyl]-2-(4-pyridinyl)-3-thiazolidinecarboxylic Acid 3-Ethyl Ester] |
